In US8614222B2, “Methods of preventing and treating low bone mass diseases” (The Trustees of Columbia University in the City of New York, priority 2008, dated 2013):

Legend:
Assay type in all cases: in vivo
serum serotonin [1] = assay: Serum serotonin levels in WT mice fed LP-533,401 (dose response)
Experimental: This decrease in serum serotonin levels reached 70% of control values when using 250 mg/kg of the compound while no change in brain serotonin content was observed (FIG. 15). […] Ovariectomized rodents present, as post-menopausal women do (Rodan & Martin, 2000, Science 289:1508-1514), a marked increase in bone resorption not compensated by a similar increase in bone formation.
(§1) Blood samples were collected from mice and rats through cardiac puncture under isoflurane anesthesia, kept on ice for 5 min, and centrifuged at 13,000 rpm for 10 min at 4° C. Serum samples were stored at −80° C. until hormonal analyses were performed. Serum serotonin levels were quantified by ELISA (Serotonin kit, Fitzgerald) while serotonin levels in brain regions were quantified by HPLC as described previously (Mann et al., 1992, Arch. Gen. Psychiatry 49:442-446). Serum levels of total deoxypyridinoline (DPD) cross-links was measured using the Merta tDPD kit (Quidel corp. Sandiago, Calif.) and Osteocalcin using Rat and Mouse Ocn IRMA kit.

brain serotonin = assay: Brain serotonin content in wild-type mice (HPLC); conditions: WT mice, 250 mg/kg orally
Experimental: FIG. 15. HPLC analysis of serotonin content in the brain of wild-type mice that received vehicle or LP-533,401 (250 mg/kg, orally) for 1 day.
as §1

serum serotonin [2] = assay: Serum serotonin levels in ovariectomized mice; conditions: OVX mice
Experimental: Six-week-old wild-type virgin female mice were purchased from the Jackson Laboratories and subjected to either bilateral ovariectomy or a sham operation after a few days of acclimatization to the animal facility post-arrival. Ovariectomy was performed under isofluorane anesthesia through dorsal, subrenal incision. In the first experiment, mice were treated from day 1 post-ovariectomy for 4 weeks with LP-533,401 (1, 10, 100 or 250 mg/kg/day) or vehicle. In the second experiment, mice were treated for 4 weeks from 2 to 6-weeks post-ovariectomy with LP-533,401 (250 mg/kg/day) or vehicle. In the third set of experiments, mice were treated for 6 weeks from 6 to 12-weeks post-ovariectomy with LP-533,401 (250 mg/kg/day) or vehicle. […]
as §1, with “Serum samples were stored at −80° C. until hormonal analyses were performed.” left out

ovariectomized rats = assay: Curative regimen in ovariectomized rats (histomorphometry, μCT, biomechanical testing); conditions: OVX rats
Experimental: Virgin female Sprague-Dawley rats (National Institute of Nutrition, Hyderabad, India) were obtained at 3 months of age and allowed to acclimate to the facility for 1 week before study initiation and surgical procedures. They were housed under a 12 hour:12 hour light:dark cycle and provided throughout the study with water and PMI (Purina Mills, Incorporated) Certified Rodent Laboratory Chow. Rats were subjected to either bilateral ovariectomy or a sham operation under isoflurane anesthesia. […] The rats were divided into two groups of sham-operated and ovariectomized animals and left untreated for 3 weeks to allow bone loss to occur. One group of sham and one group of ovariectomized rats (n=10/group) were killed as baseline controls to determine bone loss before the start of LP-533,401 or PTH administration. The remaining animals (n=5-10/group) received vehicle or LP-533,401 (250 mg/kg/day) by gavage, or recombinant human PTH (80 ug/kg) by daily subcutaneous (s.c.) injection for 4 weeks. The 80 ug/kg dose of PTH was selected as being optimal for reversal of ovariectomy-induced bone loss in rats based on previous studies, while the dose of LP-533,401 was selected based on the effective dose for bone loss-reversal observed in mice experiments. To label bone-forming surfaces, animals were injected s.c. with calcein (8 mg/kg) at 10 and 3 days before death. Animals were killed by an overdose of Isofluorane anesthesia. The right tibia and lumbar vertebra 2 (L2) were collected, cleaned of excess soft tissue, fixed overnight in 10% formalin and processed for μCT or histomorphometric analysis. The right femur and L3 were cleaned of excess tissue and stored at −20° C. prior to biomechanical testing.
(§2) Bone histomorphometry was performed as previously described (Duey et al., 2000, Cell 100:197-207; Takeda et al., 2002, Cell 111:305-317; Parfitt et al., 1987, J. Bone Miner. Res. 2:595-610). Briefly, lumbar vertebrae were dissected, fixed for 24 hr in 10% formalin, dehydrated in graded ethanol series, and embedded in methyl methacrylate resin according to standard protocols (Parfitt et al., 1987, J. Bone Miner. Res. 2:595-610). Von Kossa/Von Gieson staining was performed using 7 μm sections for bone volume over tissue volume (BV/TV) measurement. Bone formation rate (BFR) was analyzed by the calcein double-labeling method (Ducy et al., 2000, Cell 100:197-207). Calcein (Sigma Chemical Co., St. Louis, Mo.) was dissolved in calcein buffer (0.15 M NaCl, 2% NaHCO3) and injected twice at 0.125 mg/g body weight on day 1 and 4, and then mice were killed on day 6. Unstained 4 μm sections were used for bone formation rate (BFR) measurements. For the analysis of parameters of osteoblasts and osteoclasts, 4 μm sections were stained with toluidine blue and tartrate-resistant acid phosphatase (TRAP), respectively (2). Histomorphometric analyses were performed using the Osteomeasure Analysis System (Osteometrics, Atlanta, Ga.).
Trabecular bone architecture of proximal tibia was assessed using a micro computed tomography (μCT) system (VivaCT 40, SCANCO Medical AG, Bassersdorf, Switzerland). Tibia bone specimen was stabilized with gauze in a 2 ml centrifuge tube filled with 70% ethanol and fastened in the specimen holder of the μCT scanner. One hundred μCT slices, corresponding to a 1.05 mm region distal from the growth plate, were acquired at an isotropic spatial resolution of 10.5 μm. A global thresholding technique was applied to binarize gray-scale μCT images where the minimum between the bone and bone marrow peaks in the voxel gray value histogram was chosen as the threshold value. The trabecular bone compartment was segmented by a semi-automatic contouring method and subjected to a model-independent morphological analysis (Hildebrand et al., 1999, J. Bone Miner. Res. 14:1167-1174) by the standard software provided by the manufacture of the μCT scanner. […]

naive mice = assay: Histomorphometric analysis of vertebrae of naive mice; conditions: naive mice (FIG. 20A: 250 mg/kg/day orally, 6 weeks)
Experimental: FIG. 20. (A) Histomorphometric analysis of vertebrae of 12 week-old mice that received vehicle or LP-533,401 (250 mg/kg/day, orally) for 6 weeks. (B-E) Gastrointestinal transit rate (B), colon motility (C), efficiency of gastric emptying (D) and blood coagulation rate (E) in 18 week-old ovariectomized (OVX) mice that received orally vehicle or indicated doses of LP-533,401 for 6 weeks.
as §2, with “For the analysis of parameters of osteoblasts and osteoclasts, 4 μm sections were stained with toluidine blue and tartrate-resistant acid phosphatase (TRAP), respectively (2). Histomorphometric analyses were performed using the Osteomeasure Analysis System (Osteometrics, Atlanta, Ga.).” left out

[3] = long bones, μCT, all doses tested
[4] = LP-533,401 250 mg/kg/day, PTH 80 μg/kg/day

With Nc1nc(OC(c2ccc(-c3cccc(F)c3)cc2)C(F)(F)F)cc(-c2ccc(C[C@H](N)C(=O)O)cc2)n1 (stereo partly drawn) [LP-533401, (2S)-2-amino-3-(4-(2-amino-6-(2,2,2-trifluoro-1-(3′-fluorobiphenyl-4-yl)ethoxy)pyrimidin-4-yl)phenyl)propanoic acid] the “serum serotonin levels, dose response” value (serum serotonin [1]; WT mice fed with increasing amounts) was “dose-dependent decrease”, the “decrease in serum serotonin levels” value (serum serotonin [1]; WT mice, 250 mg/kg LP-533,401) was 70 % of control values and the brain serotonin content (brain serotonin) was “no change”. For the same compound, the “decrease of serum serotonin levels” value (serum serotonin [2]; 250 mg/kg/day for 4 weeks from week 2 post-ovariectomy) was 80%, the serum serotonin levels (serum serotonin [2]; day 1 to 28 post-ovariectomy) was “decreased” and the “number of osteoclasts per bone surface (OcS/BS) versus untreated ovariectomized rats” value (ovariectomized rats) was “similar”. For the same compound, the “ovariectomy-induced bone loss, histomorphometric analysis of vertebra” value (ovariectomized rats; given 3 or 12 weeks post-ovariectomy for 4 weeks, even at 25 mg/kg/day) was “fully rescued”, the “efficiency compared with PTH (80 μg/kg/day, s.c.)” value (ovariectomized rats; long bones, μCT) was “as efficient as the PTH regimen” and the “trabecular spacing (Tb.Sp*)” value (ovariectomized rats; [3]) was “reduced”. The “trabecular thickness (Tb.Th*)” value (ovariectomized rats; [3]) was “significantly increased”, the “trabecular number (Tb.N*)” value (ovariectomized rats; long bones, μCT, all doses tested (25, 100, 250 mg/kg/day)) was “significantly increased” and the bone formation rate (ovariectomized rats; vertebra) was “significant increase”. For the same compound, the osteoblast number (ovariectomized rats; vertebra) was “significant increase”, the “bone mass in long bones versus vehicle-treated controls” value (ovariectomized rats; μCT) was “increasing, in a dose-dependent manner” and the “decrease in cortical thickness at the femur mid-shaft” value (ovariectomized rats; [4]) was “equally rescued”. The “maximal load (femur, vertebra)” value (ovariectomized rats; [4]) was “restored to values seen in sham-operated rats”, the “stiffness (femur, vertebra)” value (ovariectomized rats; [4]) was “restored to values seen in sham-operated rats” and the “increase in bone mass” value (naive mice) was “also observed in naive mice”.
